Blank lines part the entries; values can stand above or below the molecule they belong to. Calls of active or inactive are those of the source. No cut-off for these calls is given here.
Columns and labels:
[1] = Inhibition of pig skin-derived LOX using cadaverine hydrochloride as substrate preincubated for 1 hr followed by substrate addition by ROS-Glo assay; parameters: species or system Sus scrofa
[2] = Stability in CD1 mouse liver microsomes assessed as parent compound remaining at 10 uM measured after 30 mins by LC-MS/MS analysis; type: ADME, Microsome; settings: read-out: Stability
[3] = Toxicity in MMTV-PyMT mouse breast cancer model assessed as change in body weight at 70 mg/kg, po administered once daily via gavage for 34 days; type: organism-based; settings: in vivo, 816 h
[4] = Stability in Sprague-Dawley rat liver microsomes assessed as parent compound remaining at 10 uM measured after 30 mins by LC-MS/MS analysis; type: ADME, Microsome; settings: read-out: Stability
[5] = target: T1, Lysyl oxidase homolog 2 (Homo sapiens) (UniProt Q9Y4K0); assay: Reversible inhibition of human C-terminal His10-tagged LOXL2 (Met1 to Gln774 residues) expressed in mouse NS0 cells assessed as enzyme residual activity at 10 times IC50 using cadaverine hydrochloride as substrate preincubated for 1 hr followed by 100-fold enzyme-compound mixture dilution in …; type: cell-based
T1 sequence (whole entry): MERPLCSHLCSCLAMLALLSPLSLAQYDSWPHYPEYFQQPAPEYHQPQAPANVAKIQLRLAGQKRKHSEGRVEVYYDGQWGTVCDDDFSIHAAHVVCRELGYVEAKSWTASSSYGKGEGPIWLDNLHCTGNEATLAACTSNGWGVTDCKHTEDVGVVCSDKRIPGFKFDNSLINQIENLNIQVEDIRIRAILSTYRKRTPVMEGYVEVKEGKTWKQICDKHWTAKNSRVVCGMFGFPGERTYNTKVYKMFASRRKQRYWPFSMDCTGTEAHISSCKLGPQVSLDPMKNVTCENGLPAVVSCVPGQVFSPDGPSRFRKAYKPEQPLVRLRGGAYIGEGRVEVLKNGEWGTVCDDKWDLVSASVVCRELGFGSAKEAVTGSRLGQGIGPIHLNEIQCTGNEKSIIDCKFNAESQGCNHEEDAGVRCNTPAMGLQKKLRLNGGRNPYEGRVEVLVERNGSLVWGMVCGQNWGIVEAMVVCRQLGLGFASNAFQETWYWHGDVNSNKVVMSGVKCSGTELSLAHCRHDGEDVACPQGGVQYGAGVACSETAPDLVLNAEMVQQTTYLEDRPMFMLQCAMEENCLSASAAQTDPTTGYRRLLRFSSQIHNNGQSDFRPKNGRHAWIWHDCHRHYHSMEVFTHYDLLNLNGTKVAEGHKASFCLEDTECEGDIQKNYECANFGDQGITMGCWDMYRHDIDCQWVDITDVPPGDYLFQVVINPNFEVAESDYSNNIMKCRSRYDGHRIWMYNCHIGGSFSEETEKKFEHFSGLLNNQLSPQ

[6] = Toxicity in MMTV-PyMT mouse breast cancer model assessed as death at 70 mg/kg, po administered once daily via gavage for 34 days; type: organism-based; settings: in vivo, 816 h
Mus musculus = assay: Antitumor activity against MMTV-PyMT mouse breast cancer model assessed as reduction in tumor growth at 70 mg/kg, po administered once daily via gavage for 34 days measured twice a week during compound dosing; type: functional, organism-based

Compound: Cn1cc(-c2cc(S(C)(=O)=O)cc(S(=O)(=O)c3csc(CN)n3)c2)cn1
IC50 [1]: > 100 µM

Compound: Cn1cc(-c2cc(S(C)(=O)=O)cc(S(=O)(=O)c3cnc(CN)s3)c2)cn1
IC50 [1]: 2.65 to 3.42 µM

Compound: CCc1cc(-c2cnn(C)c2)cc(S(=O)(=O)c2cnc(CN)s2)c1
remaining at 0.5 h, 10 µM [2]: 76%
Activity [3]: Non-Toxic
remaining at 0.5 h, 10 µM [4]: 82%
Activity [5]: 30%
Activity [6]: Non-Toxic
Activity (Mus musculus): Active

Compound: CS(=O)(=O)c1cc(-c2ccccc2)cc(S(=O)(=O)c2ccc(CN)s2)c1
remaining at 0.5 h, 10 µM [2]: 64%
Activity [5]: 80%

Other lines, results leading:

IC50 [1]: 1.13 to 1.31 µM
Compound: CS(=O)(=O)c1cc(Sc2cnc(CN)s2)cc(-c2ccccc2)c1

IC50 [1]: > 100 µM
Compound: CS(=O)(=O)c1cc(-c2ccccc2)cc(S(=O)(=O)c2csc(CN)n2)c1

IC50 [1]: 46.5 to 52 µM
Compound: CS(=O)(=O)c1cc(-c2ccccc2)cc(-c2cnc(CN)s2)c1

Reference: ChEMBL document CHEMBL4402523, “2-Aminomethylene-5-sulfonylthiazole Inhibitors of Lysyl Oxidase (LOX) and LOXL2 Show Significant Efficacy in Delaying Tumor Growth” (J Med Chem, 2020)
